Data published in patent US5807535A, “Metal complexes of hydroxyaryl containing aminocarboxylic acid chelating agents” (Australian Nuclear Science & Technology Organisation, priority 1992, dated 1998).
Where two headings read alike, the source gives them in different places.

Legend:
[1] = Biodistribution of 99mTc complexes in rats; assay type: in vivo, Australian Albino Wistar Rats; conditions: for tissue uptake at 0.5 min / tissue uptake at 1 min / tissue uptake at 0.05 h / tissue uptake at 5 min / tissue uptake at 10 min: rat; for tissue uptake at 0.5 min: 30 sec
Protocol: A typical method of radiolabelling of the chelator was achieved by dissolving the chelator in a basic solution of saline. The pH was then adjusted to approx. 6 with HCl. Excess stannous chloride was added to the resultant solution followed by one equivalent volume of sodium ^99m TcO4 (10-50 mCi/ml). Final concentration of the chelator was approx. 1 mg/ml. The efficacy of labelling was determined by ITLC-SG. For each product only one main radiochemical species was observed. Each complex was diluted to 15 μCi/100 μl with saline. […] (See FIGS. 1A and 1B).
Selected data from biodistribution results of technetium-99m complexes of No. 1, No. 2 and No 4 in the liver, kidney and blood at 3 minutes is tabulated below.

[2] = Biodistribution of 67Ga complexes in mice; assay type: in vivo, balb/c mice
Protocol: To ligand (50 μL, 10 mg/mL, 0.2 M NaOAc, […]) was added ^67 Ga citrate (18.5 MBq) and the resultant mixture diluted to 1 mL (0.2 M NaOAc, pH 7). The pH was adjusted to 12 with 1 M NaOH (20 μL) and heated at 40° C. for 40 min. The final volume was adjusted (to 5 mL) with saline and sterilised by filtering through a 0.22 μm filter.
Each animal was injected via tail vein with ^67 Ga complex (100 μL, ~3.7×10^5 Bq). Animals were sacrificed at various time intervals (5 animals per time point/6 time points). Data are illustrated in FIG. 26-30 and in Tables 13-17.
Each ^67 Ga-ligand complex has been evaluated in balb/c mice. […] (see FIG. 26-30).

[3] = blood, rats, read-out: biodistribution blood
[4] = bone, rats, read-out: biodistribution bone
[5] = brain, rats, read-out: biodistribution brain
[6] = eyes, rats, read-out: biodistribution eyes
[7] = heart, rats, read-out: biodistribution heart
[8] = kidneys, rats, read-out: biodistribution kidneys
[9] = liver, rats, read-out: biodistribution liver
[10] = lungs, rats, read-out: biodistribution lungs
[11] = muscle, rats, read-out: biodistribution muscle
[12] = pancreas, rats, read-out: biodistribution pancreas
[13] = skin, rats, read-out: biodistribution skin
[14] = spleen, rats, read-out: biodistribution spleen
[15] = stomach, rats, read-out: biodistribution stomach
[16] = tail, rats, read-out: biodistribution tail
[17] = thymus, rats, read-out: biodistribution thymus
[18] = thyroid, rats, read-out: biodistribution thyroid
[19] = total git, rats, read-out: biodistribution tot GIT

SMILES: O=C(O)CN(CCN(CC(=O)O)CC(=O)Nc1ccc(Cl)cc1O)CC(=O)Nc1ccc(Cl)cc1O [Compound 2]
- hepatobiliary passage ([1]; Tables 2 and 4): specifically traverse the hepatobiliary system
- tissue uptake at 0.5 min [1, 3]: 2.79 %ID/g
- tissue uptake at 1 min [1, 3]: 2.77 %ID/g
- tissue uptake at 0.05 h ([1]; blood, rats, 3 minutes, selected data, read-out: Blood): 1.32 %ID/g
- tissue uptake at 5 min [1, 3]: 0.94 %ID/g
- tissue uptake at 10 min [1, 3]: 0.77 %ID/g
- tissue uptake at 0.5 min [1, 4]: 0.34 %ID/g
- tissue uptake at 1 min [1, 4]: 0.37 %ID/g
- tissue uptake at 0.05 h ([1]; bone, rats, 3 min, read-out: biodistribution bone): 0.25 %ID/g
- tissue uptake at 5 min [1, 4]: 0.19 %ID/g
- tissue uptake at 10 min [1, 4]: 0.15 %ID/g
- tissue uptake at 0.5 min [1, 5]: 0.14 %ID/g
- tissue uptake at 1 min [1, 5]: 0.09 %ID/g
- tissue uptake at 0.05 h ([1]; brain, rats, 3 min, read-out: biodistribution brain): 0.06 %ID/g
- tissue uptake at 5 min [1, 5]: 0.04 %ID/g
- tissue uptake at 10 min [1, 5]: 0.03 %ID/g
- tissue uptake at 0.5 min [1, 6]: 0.11 %ID/g
- tissue uptake at 1 min [1, 6]: 0.15 %ID/g
- tissue uptake at 0.05 h ([1]; eyes, rats, 3 min, read-out: biodistribution eyes): 0.12 %ID/g
- tissue uptake at 5 min [1, 6]: 0.1 %ID/g
- tissue uptake at 10 min [1, 6]: 0.1 %ID/g
- tissue uptake at 0.5 min [1, 7]: 0.87 %ID/g
- tissue uptake at 1 min [1, 7]: 0.93 %ID/g
- tissue uptake at 0.05 h ([1]; heart, rats, 3 min, read-out: biodistribution heart): 0.46 %ID/g
- tissue uptake at 5 min [1, 7]: 0.36 %ID/g
- tissue uptake at 10 min [1, 7]: 0.28 %ID/g
- tissue uptake at 0.05 h ([1]; kidney, rats, 3 minutes, selected data, read-out: Kidney): 8.9 %ID/g
- tissue uptake at 0.5 min [1, 8]: 6.42 %ID/g
- tissue uptake at 1 min [1, 8]: 8.37 %ID/g
- tissue uptake at 0.05 h ([1]; kidneys, rats, 3 min, read-out: biodistribution kidneys): 8.9 %ID/g
- tissue uptake at 5 min [1, 8]: 7.26 %ID/g
- tissue uptake at 10 min [1, 8]: 3.35 %ID/g
- tissue uptake at 0.5 min [1, 9]: 4.61 %ID/g
- tissue uptake at 1 min [1, 9]: 6.28 %ID/g
- tissue uptake at 0.05 h ([1]; liver, rats, 3 minutes, selected data, read-out: Liver): 5.93 %ID/g
- tissue uptake at 5 min [1, 9]: 3.93 %ID/g
- tissue uptake at 10 min [1, 9]: 1.89 %ID/g
- tissue uptake at 0.5 min [1, 10]: 1.2 %ID/g
- tissue uptake at 1 min [1, 10]: 1.17 %ID/g
- tissue uptake at 0.05 h ([1]; lungs, rats, 3 min, read-out: biodistribution lungs): 0.79 %ID/g
- tissue uptake at 5 min [1, 10]: 0.59 %ID/g
- tissue uptake at 10 min [1, 10]: 0.48 %ID/g
- tissue uptake at 0.5 min [1, 11]: 0.22 %ID/g
- tissue uptake at 1 min [1, 11]: 0.24 %ID/g
- tissue uptake at 0.05 h ([1]; muscle, rats, 3 min, read-out: biodistribution muscle): 0.2 %ID/g
- tissue uptake at 5 min [1, 11]: 0.16 %ID/g
- tissue uptake at 10 min [1, 11]: 0.11 %ID/g
- tissue uptake at 0.5 min [1, 12]: 0.49 %ID/g
- tissue uptake at 1 min [1, 12]: 0.66 %ID/g
- tissue uptake at 0.05 h ([1]; pancreas, rats, 3 min, read-out: biodistribution pancreas): 0.44 %ID/g
- tissue uptake at 5 min [1, 12]: 0.52 %ID/g
- tissue uptake at 10 min [1, 12]: 0.27 %ID/g
- tissue uptake at 0.5 min [1, 13]: 0.29 %ID/g
- tissue uptake at 1 min [1, 13]: 0.45 %ID/g
- tissue uptake at 0.05 h ([1]; skin, rats, 3 min, read-out: biodistribution skin): 0.42 %ID/g
- tissue uptake at 5 min [1, 13]: 0.35 %ID/g
- tissue uptake at 10 min [1, 13]: 0.33 %ID/g
- tissue uptake at 0.5 min [1, 14]: 0.62 %ID/g
- tissue uptake at 1 min [1, 14]: 0.58 %ID/g
- tissue uptake at 0.05 h ([1]; spleen, rats, 3 min, read-out: biodistribution spleen): 0.33 %ID/g
- tissue uptake at 5 min [1, 14]: 0.25 %ID/g
- tissue uptake at 10 min [1, 14]: 0.16 %ID/g
- tissue uptake at 0.5 min [1, 15]: 0.41 %ID/g
- tissue uptake at 1 min [1, 15]: 0.68 %ID/g
- tissue uptake at 0.05 h ([1]; stomach, rats, 3 min, read-out: biodistribution stomach): 2.08 %ID/g
- tissue uptake at 5 min [1, 15]: 0.98 %ID/g
- tissue uptake at 10 min [1, 15]: 0.9 %ID/g
- tissue uptake at 0.5 min [1, 16]: 0.81 %ID/g
- tissue uptake at 1 min [1, 16]: 0.66 %ID/g
- tissue uptake at 0.05 h ([1]; tail, rats, 3 min, read-out: biodistribution tail): 0.64 %ID/g
- tissue uptake at 5 min [1, 16]: 1.16 %ID/g
- tissue uptake at 10 min [1, 16]: 0.55 %ID/g
- tissue uptake at 0.5 min [1, 17]: 0.39 %ID/g
- tissue uptake at 1 min [1, 17]: 0.37 %ID/g
- tissue uptake at 0.05 h ([1]; thymus, rats, 3 min, read-out: biodistribution thymus): 0.27 %ID/g
- tissue uptake at 5 min [1, 17]: 0.17 %ID/g
- tissue uptake at 10 min [1, 17]: 0.15 %ID/g
- tissue uptake at 0.5 min [1, 18]: 1.41 %ID/g
- tissue uptake at 1 min [1, 18]: 1.71 %ID/g
- tissue uptake at 0.05 h ([1]; thyroid, rats, 3 min, read-out: biodistribution thyroid): 0.81 %ID/g
- tissue uptake at 5 min [1, 18]: 0.58 %ID/g
- tissue uptake at 10 min [1, 18]: 0.44 %ID/g
- tissue uptake at 0.5 min [1, 19]: 0.48 %ID/g
- tissue uptake at 1 min [1, 19]: 0.58 %ID/g
- tissue uptake at 0.05 h ([1]; total git, rats, 3 min, read-out: biodistribution tot GIT): 1.56 %ID/g
- tissue uptake at 5 min [1, 19]: 2.27 %ID/g
- tissue uptake at 10 min [1, 19]: 3.18 %ID/g
- liver versus kidney uptake ([1]; rats): preference for the liver uptake as opposed to the kidney
- biodistribution blood ([1]; rats, 3 min): 1.32 % Injected dose per gram
- biodistribution liver ([1]; rats, 3 min): 5.93 % Injected dose per gram
- biodistribution bone ([2]; 1 min): 6.16 % ID
- biodistribution kidney ([2]; 1 min): 9.54 % ID
- biodistribution liver ([2]; 1 min): 24.9 % ID
- biodistribution lungs ([2]; 1 min): 1.79 % ID
- biodistribution muscle ([2]; 1 min): 20.55 % ID
- biodistribution skin ([2]; 1 min): 11.55 % ID
- biodistribution spleen ([2]; 1 min): 0.29 % ID
- biodistribution bone ([2]; 3 min): 2.82 % ID
- biodistribution kidney ([2]; 3 min): 4.62 % ID
- biodistribution liver ([2]; 3 min): 35.52 % ID
- biodistribution lungs ([2]; 3 min): 0.56 % ID
- biodistribution muscle ([2]; 3 min): 8.63 % ID
- biodistribution skin ([2]; 3 min): 9.27 % ID
- biodistribution spleen ([2]; 3 min): 0.1 % ID
- biodistribution bone ([2]; 5 min): 2.13 % ID
- biodistribution kidney ([2]; 5 min): 3.52 % ID
- biodistribution liver ([2]; 5 min): 33.09 % ID
- biodistribution lungs ([2]; 5 min): 0.41 % ID
- biodistribution muscle ([2]; 5 min): 5.50 % ID
- biodistribution skin ([2]; 5 min): 8.04 % ID
- biodistribution spleen ([2]; 5 min): 0.07 % ID
- biodistribution bone ([2]; 10 min): 0.74 % ID
- biodistribution kidney ([2]; 10 min): 1.00 % ID
- biodistribution liver ([2]; 10 min): 23.34 % ID
- biodistribution lungs ([2]; 10 min): 0.12 % ID
- biodistribution muscle ([2]; 10 min): 2.00 % ID
- biodistribution skin ([2]; 10 min): 3.80 % ID
- biodistribution spleen ([2]; 10 min): 0.02 % ID
- biodistribution bone ([2]; 30 min): 0.50 % ID
- biodistribution kidney ([2]; 30 min): 0.21 % ID
- biodistribution liver ([2]; 30 min): 3.7 % ID
- biodistribution muscle ([2]; 30 min): 2.00 % ID
- biodistribution skin ([2]; 30 min): 0.88 % ID
- biodistribution spleen ([2]; 30 min): 0.02 % ID
- biodistribution bone ([2]; 120 min): 0.38 % ID
- biodistribution kidney ([2]; 120 min): 0.01 % ID
- biodistribution liver ([2]; 120 min): 0.92 % ID
- biodistribution muscle ([2]; 120 min): 0.31 % ID
- biodistribution skin ([2]; 120 min): 0.17 % ID
- biodistribution spleen ([2]; 120 min): 0 % ID
